These results are taken from US20250034212A1, “PEPTIDE” (PEPTIDREAM INC., priority 2021, published 2025).

Experiment [1] addresses T1, recombinant human TGF-β1 (Homo sapiens, UniProt P01137).
T1 construct: purchased R&D systems
The experiment in a line: SBE reporter assay in SBE reporter-HEK293 cells, TGF-β1 stimulation. In kind it is cell-based. The conditions noted are these: for inhibition at 75 pM: peptide 0.075 nM; for inhibition at 75 pM / inhibition at 0.00075 µM / inhibition at 0.0075 µM / inhibition at 0.075 µM / inhibition at 62 pM / inhibition at 0.000185 µM / inhibition at 0.00056 µM / inhibition at 0.0017 µM / inhibition at 0.005 µM / inhibition at 0.015 µM: TGF-β1 0.13 nM, 18 hours; for inhibition at 0.00075 µM: peptide 0.75 nM; for inhibition at 0.0075 µM: peptide 7.5 nM; for inhibition at 0.075 µM: peptide 75.0 nM; for inhibition at 62 pM: peptide 0.062 nM; for inhibition at 0.000185 µM: peptide 0.185 nM; for inhibition at 0.00056 µM: peptide 0.56 nM; for inhibition at 0.0017 µM: peptide 1.7 nM; for inhibition at 0.005 µM: peptide 5.0 nM; for inhibition at 0.015 µM: peptide 15.0 nM. An excerpt: The inhibitory activity of the peptide can be calculated without limitation while the maximum signal induced by TGF-β is set to 0% inhibition and no stimulation is set to 100% inhibition. When the peptide is used at an appropriate concentration, for example, at the optimal concentration, the inhibitory activity is not limited but the inhibition is 5% or more, 10% or more, 20% or more, 30% or more, 40% or more, 50% or more, 60% or more, 70% or more, 80% or more, or 90% or more.
In this Example, the TGF-β1 inhibitory activity of the peptide of the present invention consisting of the amino acid sequence set forth in SEQ ID NOs: 2-33 synthesized in Examples 1 to 5 and 7 was evaluated by an SBE reporter assay using the SBE reporter-HEK293 cell system (BP Bioscience) as follows.
SBE reporter-HEK293 cells were cultured in E-MEM (Wako) containing 10% FBS (Sigma). The cells were detached using Accutase (Innovative Cell Technologies), suspended in E-MEM containing 0.5% FBS, seeded onto a 96-well plate(s) at a concentration of 45,000 cells per well, and cultured overnight. The next day, the peptide was added and allowed to stand for 20 min, and recombinant human TGF-β1 (R&D systems) or recombinant human TGF-β2 (R&D systems) was then added at 0.13 nM and cultured for 18 hours.
Thereafter, luciferase assay ONE-Glo reagent was added to each well and the plate was shaken for 5 min. A SpectraMax Paradigm multimode microplate reader (Molecular Devices) was then used for signal detection. The obtained signals were analyzed by GraphPad Prism. The inhibitory activity of the peptide was calculated while the maximum signal induced by TGF-β was set to 0% inhibition and no stimulation was set to 100% inhibition.
For orientation: In a reporter assay the amount or activity of a reporter protein is the signal.

The target in experiment [2] is T1, recombinant human TGF-β1. Kind of experiment: SPR intermolecular interaction test, TGF-β1 immobilized on CM3 sensor chip (Biacore T200). The experiment is classed as binding. The conditions noted are these: for Kd: Single Cycle Kinetics, human TGF-β1. As to the method: In this Example, (1) the activity of binding to TGF-β for various peptides consisting of the amino acid sequences set forth in SEQ ID NOs: 2-33 synthesized in Examples 1 to 5 and 7 was evaluated. (2) The activity and selectivity of binding of the peptide consisting of the amino acid sequence set forth in SEQ ID NO: 13 synthesized in Example 2 against two isoforms of TGF-β (TGF-β1 and β2) were checked. For this purpose, the intermolecular interaction of each peptide against TGF-β was tested by surface plasmon resonance (SPR) in the method described below. Specific test methods are described below.
A CM3 sensor chip (Global Life Science Technologies Japan Co., Ltd.) was inserted into a BiacoreT200 (Global Life Science Technologies Japan Co., Ltd.). Three priming runs were performed using running buffer: HBS-EP+ (Global Life Science Technologies Japan Co., Ltd.). The system was then equilibrated at a flow rate of 30 μL/min.
Subsequently, 50 μL of 60 mM EDC solution (Global Life Science Technologies Japan Co., Ltd.) and 50 μL of 650 mM NHS solution (Global Life Science Technologies Japan Co., Ltd.) were mixed. Next, the reaction was carried out at a flow rate of 10 μL/min for 420 seconds. Then, 150 μL of 0.2 μM TGF-β solution diluted in 10 mM acetic acid solution (pH 5.0) was prepared and reacted at a flow rate of 10 μL/min for 420 seconds to immobilize TGF-β on the CM3 sensor chip. TGF-β was human-derived TGF-β1 or β2 (recombinant human TGF-β1, 2) and was obtained from R&D systems. After immobilization, capping was performed by reacting with 1.0 M ethanolamine aqueous solution (Global Life Science Technologies Japan Co., Ltd.) at a flow rate of […] for 420 seconds.
A liquid prepared by dissolving each peptide at 10 mM in DMSO solution was diluted with running buffer to prepare a peptide-dissolved solution at a final concentration of 10 μM. Subsequently, 50 nM, 25 nM, 12.5 nM, 5 nM, and 2.5 nM peptide solutions were prepared. Using the above samples, the kinetics of each peptide against TGF-β was obtained by SPR measurement.
The kinetics evaluation model was Single Cycle Kinetics, and curve fitting was performed using Biacore T200 Evaluation Software Version 3.0 (Global Life Science Technologies Japan Co., Ltd.). The binding of various peptides to TGF-β was evaluated by performing least-squares curve fitting on the obtained sensorgram to calculate the KD value.

Starred links: 1 amine or outer side, 2 acyl side, 3 side chain; linkers in the order of their positions; H or OH if unused. Positions of bridges follow the written chain, without caps; N, C: chain ends. Non-standard residues stand in square brackets, D forms with d. Residues, ends and D or L forms follow the SMILES beside them. Groups on a side chain read outwards from the residue. *: point of attachment. Meglumine = CN(C[C@H](O)[C@@H](O)[C@H](O)[C@H](O)CO)*; Piperazinyl(4-CH2COOH) = O=C(O)CN1CCN(*)CC1; 1Nal = N[C@@H](Cc1cccc2ccccc12)C(=O)O; Gly(NCH2CH2Ph) = O=C(O)CNCCc1ccccc1; 4Pal = N[C@@H](Cc1ccncc1)C(=O)O; CO = O=C([*:1])[*:2]

T1 sequence (P01137 279-390 limits assumed): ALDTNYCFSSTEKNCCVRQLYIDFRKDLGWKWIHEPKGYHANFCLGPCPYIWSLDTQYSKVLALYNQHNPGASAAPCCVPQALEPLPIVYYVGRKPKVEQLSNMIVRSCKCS

On to `CC(C)[C@@H]1NC(=O)CN(CCc2ccccc2)C(=O)[C@H](CC(=O)O)NC(=O)[C@H](CC(=O)O)NC(=O)[C@H](Cc2ccc(O)cc2)NC(=O)[C@H](C(C)C)NC(=O)[C@H](CC(N)=O)NC(=O)[C@H](C(C)C)NC(=O)[C@H](C(C)C)NC(=O)[C@H](Cc2cccc3ccccc23)NC(=O)[C@H](Cc2ccccc2)NC(=O)CSC[C@@H](C(=O)NCC(N)=O)NC(=O)[C@H](C(C)C)NC(=O)[C@H](Cc2c[nH]cn2)NC(=O)[C@H](Cc2ccc(O)cc2)NC(=O)[C@H](Cc2cccc3ccccc23)NC1=O` [TGFb1_001, F-Nal1-V-V-N-V-Y-D-D-PeG-V-Nal1-Y-H-V-C-G] ({CH2CO}-F[1Nal]VVNVYDD[Gly(NCH2CH2Ph)]V[1Nal]YHVCG-NH2; thioether N-16), for which the “TGF-β1 antagonist / inhibitory activity (in words)” value at recombinant human TGF-β1 [1] (SBE reporter assay, FIG. 1 and Tables 2 and 3) is recorded as “TGF-β antagonist activity”. At recombinant human TGF-β1 [1], the inhibition (as a rule, the change of the read-out against control, counted positive when it falls) at 75 pM was 19.7%; the inhibition at 0.00075 µM came to 69.7%; the inhibition at 0.0075 µM stood at 98.1%; the inhibition at 0.075 µM came out at 101%. The “ability of binding to TGF-β1 (in words)” value at recombinant human TGF-β1 [2] is reported as “confirmed to have TGF-β binding activity”.
As for `CC(C)[C@@H]1NC(=O)CN(CCc2ccccc2)C(=O)[C@H](CC(=O)O)NC(=O)[C@H](CC(=O)O)NC(=O)[C@H](Cc2ccncc2)NC(=O)[C@H](C(C)C)NC(=O)[C@H](CC(N)=O)NC(=O)[C@H](C(C)C)NC(=O)[C@H](C(C)C)NC(=O)[C@H](Cc2cccc3ccccc23)NC(=O)[C@H](Cc2ccccc2)NC(=O)CSC[C@@H](C(=O)NCC(N)=O)NC(=O)[C@H](C(C)C)NC(=O)[C@H](Cc2c[nH]cn2)NC(=O)[C@H](Cc2ccc(O)cc2)NC(=O)[C@H](Cc2cccc3ccccc23)NC1=O` [TGFb1_006] ({CH2CO}-F[1Nal]VVNV[4Pal]DD[Gly(NCH2CH2Ph)]V[1Nal]YHVCG-NH2; thioether N-16), at recombinant human TGF-β1 [1], the inhibition at 75 pM turned out to be 2.8%, the inhibition at 0.00075 µM worked out at 69.3%, the inhibition at 0.0075 µM was 97.1% and the inhibition at 0.075 µM was 99.7%. In addition, the Kd – broadly, the concentration at which binding is half-saturated – on recombinant human TGF-β1 [2] was 1.03 nM.
With `CC(C)[C@@H]1NC(=O)CN(CCc2ccccc2)C(=O)[C@H](CC(=O)O)NC(=O)[C@H](CC(=O)O)NC(=O)[C@H](Cc2ccncc2)NC(=O)[C@H](C(C)C)NC(=O)[C@H](CC(N)=O)NC(=O)[C@H](C(C)C)NC(=O)[C@H](C(C)C)NC(=O)[C@H](Cc2cccc3ccccc23)NC(=O)[C@H](Cc2ccccc2)NC(=O)CSC[C@@H](C(N)=O)NC(=O)[C@H](CCCCNC(=O)N2CCN(CC(=O)O)CC2)NC(=O)[C@H](Cc2c[nH]cn2)NC(=O)[C@H](Cc2ccc(O)cc2)NC(=O)[C@H](Cc2cccc3ccccc23)NC1=O` [TGFb1_013] ({CH2CO}-F[1Nal]VVNV[4Pal]DD[Gly(NCH2CH2Ph)]V[1Nal]YHK([CO-Piperazinyl(4-CH2COOH)])C-NH2; thioether N-16), on recombinant human TGF-β1 [2], the Kd turned out to be 0.82 nM.
`CC(C)[C@@H]1NC(=O)CN(CCc2ccccc2)C(=O)[C@H](CC(=O)O)NC(=O)[C@H](CC(=O)O)NC(=O)[C@H](Cc2ccncc2)NC(=O)[C@H](C(C)C)NC(=O)[C@H](CC(N)=O)NC(=O)[C@H](CCCCNC(=O)N2CCN(CC(=O)O)CC2)NC(=O)[C@H](C(C)C)NC(=O)[C@H](Cc2cccc3ccccc23)NC(=O)[C@H](Cc2ccccc2)NC(=O)CSC[C@@H](C(=O)NCC(N)=O)NC(=O)[C@H](CCCCNC(=O)N2CCN(CC(=O)O)CC2)NC(=O)[C@H](Cc2c[nH]cn2)NC(=O)[C@H](Cc2ccc(O)cc2)NC(=O)[C@H](Cc2cccc3ccccc23)NC1=O` [TGFb1_019] ({CH2CO}-F[1Nal]VK([CO-Piperazinyl(4-CH2COOH)])NV[4Pal]DD[Gly(NCH2CH2Ph)]V[1Nal]YHK([CO-Piperazinyl(4-CH2COOH)])CG-NH2; thioether N-16): on recombinant human TGF-β1 [1], the inhibition at 62 pM amounted to 5.21%, the inhibition at 0.000185 µM worked out at 11.3%, the inhibition at 0.00056 µM turned out to be 30.2% and the inhibition at 0.0017 µM came out at 61.6%. Moreover, on recombinant human TGF-β1 [1], the inhibition at 0.005 µM was 87.8% and the inhibition at 0.015 µM worked out at 96.4%. Further, at recombinant human TGF-β1 [2], the Kd was 1.41 nM.
For `CC(C)[C@@H]1NC(=O)CN(CCc2ccccc2)C(=O)[C@H](CC(=O)O)NC(=O)[C@H](CC(=O)O)NC(=O)[C@H](Cc2ccncc2)NC(=O)[C@H](C(C)C)NC(=O)[C@H](CC(N)=O)NC(=O)[C@H](CCCCNC(=O)N(C)C[C@H](O)[C@@H](O)[C@H](O)[C@H](O)CO)NC(=O)[C@H](C(C)C)NC(=O)[C@H](Cc2cccc3ccccc23)NC(=O)[C@H](Cc2ccccc2)NC(=O)CSC[C@@H](C(=O)NCC(N)=O)NC(=O)[C@H](CCCCNC(=O)N2CCN(CC(=O)O)CC2)NC(=O)[C@H](Cc2c[nH]cn2)NC(=O)[C@H](Cc2ccc(O)cc2)NC(=O)[C@H](Cc2cccc3ccccc23)NC1=O` [TGFb1_020] ({CH2CO}-F[1Nal]VK([CO-Meglumine])NV[4Pal]DD[Gly(NCH2CH2Ph)]V[1Nal]YHK([CO-Piperazinyl(4-CH2COOH)])CG-NH2; thioether N-16), at recombinant human TGF-β1 [1], the inhibition at 62 pM amounted to 8.5%, the inhibition at 0.000185 µM stood at 15.8%, the inhibition at 0.00056 µM worked out at 36.3% and the inhibition at 0.0017 µM amounted to 70.4%. Further, at recombinant human TGF-β1 [1], the inhibition at 0.005 µM came out at 89.3% and the inhibition at 0.015 µM worked out at 96.9%. For the same compound, the Kd at recombinant human TGF-β1 [2] worked out at 1.26 nM.
In the case of `CC(C)[C@@H]1NC(=O)CN(CCc2ccccc2)C(=O)[C@H](CCCCNC(=O)N2CCN(CC(=O)O)CC2)NC(=O)[C@H](CC(=O)O)NC(=O)[C@H](Cc2ccncc2)NC(=O)[C@H](C(C)C)NC(=O)[C@H](CC(N)=O)NC(=O)[C@H](C(C)C)NC(=O)[C@H](C(C)C)NC(=O)[C@H](Cc2cccc3ccccc23)NC(=O)[C@H](Cc2ccccc2)NC(=O)CSC[C@@H](C(=O)NCC(N)=O)NC(=O)[C@H](CCCCNC(=O)N2CCN(CC(=O)O)CC2)NC(=O)[C@H](Cc2c[nH]cn2)NC(=O)[C@H](Cc2ccc(O)cc2)NC(=O)[C@H](Cc2cccc3ccccc23)NC1=O` [TGFb1_022] ({CH2CO}-F[1Nal]VVNV[4Pal]DK([CO-Piperazinyl(4-CH2COOH)])[Gly(NCH2CH2Ph)]V[1Nal]YHK([CO-Piperazinyl(4-CH2COOH)])CG-NH2; thioether N-16), at recombinant human TGF-β1 [1], the inhibition at 62 pM stood at 6.49%, the inhibition at 0.000185 µM worked out at 20.8%, the inhibition at 0.00056 µM came to 53.8% and the inhibition at 0.0017 µM was determined as 85.2%. In addition, at recombinant human TGF-β1 [1], the inhibition at 0.005 µM was found to be 97.1% and the inhibition at 0.015 µM turned out to be 99.5%. Also, on recombinant human TGF-β1 [2], the Kd is 0.91 nM.
